According to PubChem BioAssay (NCI):
“And” between values parts separate entries of the source, which are not always exact repeats. Equal values may be shown once.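 Results reflect a 48-hour exposure of cells in 96-well plates to compound at five concentrations. Abbreviation: GI50, concentration required for 50% inhibition of growth. TGI marks complete inhibition of growth.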

How the values were obtained:
Assay in all cases: NCI tumour cell line growth inhibition, 48 h
[1] = test system: SF-295 CNS
[2] = test system: UO-31 renal
[3] = test system: SR leukemia
[4] = test system: HS 578T breast
[5] = test system: HOP-62 NSCLC
[6] = test system: K-562 leukemia
[7] = test system: RPMI-8226 leukemia
[8] = test system: KM12 colon
[9] = test system: SF-268 CNS
[10] = test system: UACC-257 melanoma

SMILES	GI50 [1] [µM]	TGI [1]	GI50 [2] [µM]	TGI [2]	GI50 [3] [µM]	TGI [3] [µM]	GI50 [4] [µM]	TGI [4]	GI50 [5] [µM]	TGI [5]	TGI [6]	GI50 [7] [µM]	TGI [7]	GI50 [8] [µM]	TGI [8] [µM]	GI50 [9] [µM]	TGI [9]	GI50 [10] [µM]	TGI [10]	GI50 [6] [µM]
C1COCCN1.C1COCCN1.N.N.[Cl-].[Pt+2]	> 100	> 100 µM	> 100	> 100 µM	> 100	> 100														
CN1CCN(Cc2ccc(C(=O)Nc3cncc(C#Cc4cnc(N)c5ccccc45)c3)cc2C(F)(F)F)CC1	1.86	3.46 µM	1.59	2.98 µM	2.09	5.17	2.98	14.6 µM	2.19	4.42 µM	1.15 µM	2.15	5.27 µM	0.788	2.48	4.42	17.2 µM	2.14	4.34 µM	
CC(=O)OC1=C2CC3(C)OC(=O)CC(C)(C)C3=CC=C2C=C(C(C)C)C1=O (centres undefined)		3.14 µM		3.12 µM		1.01				19.9 µM	> 100 µM		0.56 µM		3.07		2.4 µM		1.1 µM	
O=c1[nH]c2ccccc2cc1C(Cl)=C(Cl)Cl		> 100 µM		> 100 µM		> 100				> 100 µM	> 100 µM		> 100 µM		> 100		> 100 µM		> 100 µM	
CCCCCCCCCCCCCCCC(=O)NCC(COP(=O)([O-])OCC[N+](C)(C)C)OCC (centres undefined)		18.6 µM		32.9 µM		18.6				20.1 µM			9.76 µM		3.01		27 µM		30.4 µM	
CC(C)(C)c1cc(O)c(O)c(C(C)(C)C)c1	3.53	14.4 µM	2.15	4.98 µM	2.38	6.64	3.9	26.7 µM	8.96	29 µM	7.44 µM	3.17	7.69 µM	5.57	16.9	4.77	16.1 µM	2.42	7.4 µM	2.47
CN(C)/C(=N/C(=S)Nc1ccccc1)SCc1ccccc1		> 100 µM		95.8 µM						> 100 µM	> 100 µM		> 100 µM		> 100		> 100 µM		> 100 µM	
COc1cc2c3c(cccc3c1)C(=O)N(CCN1CCCC1)C2=O	2.46	6.44 µM			1.47	> 100	3.98	13 µM	2.1	5.27 µM	> 100 µM			2.88	> 100	2.48	9.06 µM			3.62
COc1ccc(-c2nn(-c3cccc(Cl)c3)cc2C2CC(c3ccccc3)=NN2C(C)=O)cc1 (centres undefined)	5.96	40.6 µM	6.36	> 100 µM	8.98	> 100	2.81	20.1 µM	2.62	6.4 µM	> 100 µM	> 100	> 100 µM	> 100	> 100	3.13	14.2 µM	32.1	> 100 µM	> 100
C=C1C(O)C2CCC(C)(C)C(=O)C2=C(CC(C)C)C12CC2 (centres undefined)	36.6	> 100 µM	66.1	> 100 µM	34	> 100	18.9	92.9 µM	76.6	> 100 µM	> 100 µM	22.3	56.8 µM	47.1	> 100	50.5	> 100 µM	88	> 100 µM	31.9
CSc1nc(SC)c2c(CN=[N+]=[N-])c(Br)n(Cc3ccccc3)c2n1		> 100 µM		> 100 µM		> 100		> 100 µM		> 100 µM			> 100 µM		> 100		> 100 µM			
CCN1CCN(c2nc(NCCCNc3ccnc4cc(Cl)ccc34)c3ccccc3n2)CC1	1.66	3.37 µM	1.49	2.97 µM	1.29	5.44	2.24	6.22 µM	1.79	4.91 µM	7.14 µM	2.12	6.04 µM	2.74	11.4	2.59	10.7 µM	2.01	3.97 µM	2.23
COc1cccc(/C=C/C(=O)c2cc3c(N)c(C(=O)Nc4ccccc4C)sc3nc2C)c1	2.26	15.9 µM	0.863	1.72 µM	1.09	4.2	1.63	> 50 µM	1.12	2.57 µM	> 50 µM	1.09	2.92 µM	1.27	3.62	1.78	7.66 µM	1.21	3.75 µM	1.42
CCOC(=O)CC1=Nc2ccccc2SC1		> 100 µM		> 100 µM						> 100 µM					> 100		1.56 µM		> 100 µM	
N#CC1(c2nc3ccccc3o2)C(=O)C(=O)N(C2C3CC4CC(C3)CC2C4)C(=O)C1=O (centres undefined)		> 100 µM		> 100 µM		> 100				> 100 µM	> 100 µM		> 100 µM		> 100		> 100 µM		> 100 µM	
COc1c(C2CC(=O)Nc3c2cnn3Cc2ccco2)cc2c(c1OC)OCO2 (centres undefined)	0.573	> 30.5 µM	2.65	> 100 µM	0.437	> 100	0.49	> 100 µM	1.79	> 100 µM	> 100 µM	0.396	> 56.5 µM	0.439	> 100	1.58	> 100 µM			0.434
COc1ccc(/C=C/C=C(/C#N)C(N)=S)cc1	31	> 100 µM	21.6	45.2 µM	19.4	> 100	62.5	> 100 µM	29.8	94.9 µM	> 100 µM			21.3	89.4	28	> 100 µM	20.4	41.4 µM	29.9

SMILES	GI50 [1] [µM]	TGI [1]	GI50 [2] [µM]	TGI [2]	GI50 [3] [µM]	TGI [3] [µM]	GI50 [4] [µM]	TGI [4]	GI50 [5] [µM]	TGI [5]	TGI [6]	GI50 [7] [µM]	TGI [7]	GI50 [8] [µM]	TGI [8] [µM]	GI50 [9] [µM]	TGI [9]	GI50 [10] [µM]	TGI [10]	GI50 [6] [µM]
C=CCSC[C@H](NC(=O)COc1ccccc1)C(=O)NC(C(=O)OCc1ccc([N+](=O)[O-])cc1)=C(C)C		> 100 µM		> 100 µM						> 100 µM	> 100 µM		> 100 µM		> 100		> 100 µM		> 100 µM	
O=C(c1cccs1)c1c(C(F)(F)F)n([O-])c2ccccc2[n+]1=O	0.941	2.43 µM	0.0775	6.08 µM	2.56	6.03	1.03	2.91 µM	0.376	1.24 µM	8.77 µM	0.613	10.5 µM	1.12	3.07	0.395	1.16 µM			1.64
CC(=O)[CH-]C(=O)c1ccccc1.CC(=O)[CH-]C(=O)c1ccccc1.CCCCCCCCCCCCCCCCCC(=O)[O-].CCCCCCCCCCCCCCCCCC(=O)[O-].[Ti+4]	19.5	34.3 µM	13.8	26.7 µM					30.7	90.9 µM	62.1 µM	21.6	55.4 µM	33.6	> 100	21.6	47.6 µM	24.6	68.5 µM	22.3
CSC1=NC=CCN1C		> 100 µM		> 100 µM						> 100 µM	> 100 µM		> 100 µM		> 100		> 100 µM		> 100 µM	
O=c1cc(-c2cccc(F)c2)[nH]c2cc3c(cc12)OCO3	0.141		0.47	75 µM and > 63.4 µM				0.181 µM		21.3 µM	75 µM and > 16.4 µM			0.332		0.658	75 µM and > 58.1 µM		> 100 µM	0.338
COc1cc2c(c3c1C=CCO3)C(=O)c1ccccc1C2=O		> 100 µM		> 100 µM		> 100				> 100 µM	> 100 µM		> 100 µM		> 100		> 100 µM		68.9 µM	
COc1ccc2cc1Oc1ccc(cc1)C[C@H]1c3cc(c(OC)cc3CCN1C)Oc1c(OC)c(OC)cc3c1[C@H](C2)N(C)CC3	12.8	16.3 µM and 28.9 µM and > 100 µM			0.0282		13.1	19.1 µM and 28.2 µM and > 100 µM	15.1	15.1 µM and 34.2 µM	11.1 µM and > 100 µM	1.92	20.3 µM and 5.21 µM			12.6	16.5 µM and 25.1 µM and > 100 µM	4.06	11.4 µM and 14.6 µM and > 100 µM	
FC(F)(F)c1nc(-c2ccccc2Cl)[nH]c1C(F)(F)F		2.03 µM		2.15 µM		1.68				1.35 µM	4.29 µM		25.2 µM		4.13		> 29.5 µM		2.2 µM	
O=[N+]([O-])[C@@H]1C2C=CC(C2)[C@H]1Cl (some centres undefined)		> 100 µM		> 100 µM		> 100				> 100 µM	> 100 µM		> 100 µM		> 100		> 100 µM		> 100 µM	
O=C(c1ccc2ccccc2c1)c1c(C(F)(F)F)n([O-])c2cc(Cl)c(Cl)cc2[n+]1=O	1.66	3.06 µM	1.51	2.83 µM			1.85	4.15 µM	1.64	3.03 µM	3.12 µM	1.58	3.85 µM	1.53	2.86	1.85	3.96 µM	1.63	3.03 µM	1.56
CC(=O)c1ccc(Nc2cc(-c3ccccc3)nc3c(O)cccc23)cc1	37.2	> 100 µM	14	53.9 µM	1.59	49.5	27	> 100 µM	10.6	36 µM	> 100 µM	8.8	46.8 µM	5.72	> 100			21	53.4 µM	4.73
Cc1cc([C@@H](C)Nc2ccccc2C(=O)O)c2nc(N3CCOCC3)cc(=O)n2c1	1.85	> 10 µM	2.43	> 10 µM			0.122	8.14 µM	> 10	> 10 µM	> 10 µM	> 10	> 10 µM	> 10	> 10	> 10	> 10 µM	> 10	> 10 µM	> 10
C[C@@H]1CC[C@H]2C(COCC3=C(C(F)(F)F)O[C@@H]4O[C@@]5(C)CC[C@H]6[C@H](C)CC[C@@H]3[C@@]46OO5)=C(C(F)(F)F)O[C@@H]3O[C@@]4(C)CC[C@@H]1[C@]32OO4	0.1		< 0.01	> 100 µM	< 0.01	> 100	0.152	> 100 µM			> 100 µM	< 0.01	> 100 µM	< 0.01	> 100					< 0.01
COC(=O)C1OC(O[C@H]2CCC3(C)C(CCC4(C)C3CC=C3C5CC(C)(C)CCC5(C(=O)O)CC[C@]34C)C2(C)C)C(O)C(OC2OC(CO)C(O)C(O)C2O)C1O (some centres undefined)	11.8	> 33.3 µM	> 33.3	> 33.3 µM			8.77	21.6 µM	6.21	11.6 µM	26.6 µM			8.83	28.9	7.56	17.1 µM	6.89	16.1 µM	8.17
O=C(C#Cc1c[nH]c(=O)[nH]c1=O)c1ccccc1Cl		> 100 µM		38.5 µM						> 100 µM	> 100 µM		71.7 µM		88.4		41.4 µM		27.9 µM	
CCOC(=O)C1(CC)CCCCC(=O)N1 (centres undefined)		> 100 µM		> 100 µM						> 100 µM	> 100 µM						> 100 µM			
COC(=O)C(c1[nH]nc2ccccc12)C(C(=O)OC)c1[nH]nc2ccccc12 (centres undefined)		> 100 µM		> 100 µM		> 100				> 100 µM	> 100 µM		50.4 µM		> 100		> 100 µM		> 100 µM	
